Data from publication PMC8659148, “Drug Repurposing for Influenza Virus Polymerase Acidic (PA) Endonuclease Inhibitor” (Molecules, 2021).

Biological target: mutant PAN-I38T endonuclease (Influenza A virus, UniProt P03433, I38T)
Assay type: biochemical, influenza A type virus (H1N1)

| SMILES | inhibition of the endonuclease activity of PAN-I38T (in words) |
| --- | --- |
| C[C@]12C=CC(=O)N[C@@H]1CC[C@@H]1[C@@H]2CC[C@]2(C)[C@@H](C(=O)Nc3cc(C(F)(F)F)ccc3C(F)(F)F)CC[C@@H]12 [dutasteride] | no inhibition |
| CS(=O)(=O)c1cccc(C[C@H](NC(=O)c2c(Cl)cc3c(c2Cl)CCN(C(=O)c2ccc4ccoc4c2)C3)C(=O)O)c1 [lifitegrast] | inhibitory effect |
| O=C1[C@@H]2[C@H]3CC[C@H](C3)[C@@H]2C(=O)N1C[C@@H]1CCCC[C@H]1CN1CCN(c2nsc3ccccc23)CC1 [lurasidone] | no inhibition |
| CO[C@H]1/C=C/O[C@@]2(C)Oc3c(C)c(O)c4c(O)c(c5c(nc6cc(C)ccn65)c4c3C2=O)NC(=O)/C(C)=C\C=C\[C@H](C)[C@H](O)[C@@H](C)[C@@H](O)[C@@H](C)[C@H](OC(C)=O)[C@@H]1C [rifaximin] | no inhibition |
| CC(C)(C)NC(=O)[C@@H]1C[C@@H]2CCCC[C@@H]2CN1C[C@@H](O)[C@H](Cc1ccccc1)NC(=O)[C@H](CC(N)=O)NC(=O)c1ccc2ccccc2n1 [saquinavir] | no inhibition |
